Results on three compounds are retold here after publication PMC10257182, “Discovery of senolytics using machine learning” (Nature Communications, 2023).

The subject of this experiment is senescent IMR90 ER:RAS cells (4-OHT-induced). The experiment is described as follows: Nuclei count (Hoechst, high content imaging) senolytic assay, oncogene-induced senescence (OIS) model, senescent cells. It is filed as cell-based, human. The settings on record: for viability at 10 µM / viability at 4.677 µM / viability at 2.188 µM / viability at 1 µM / viability at 0.4677 µM / viability at 0.2188 µM / viability at 0.1 µM / viability at 0.04677 µM / viability at 0.02188 µM / viability at 0.01 µM: Homo sapiens. The text has this:
To test for senolytic activity, we compared the effect of each compound on the total cell number (automated high content image-based analysis of total number of nuclei per well) in non-senescent and senescent IMR90 ER:RAS cultures treated with the top hits from the computational screen (Figs. 2e and 3a–d and Supplementary Fig. 4a–c). The drop in cell number compared to untreated controls is indicated by the nuclei count and reflects cell death[13],[15]. As positive control, we employed ouabain, a cardiac glycoside with well characterised senolytic activity.
We performed experimental validation of the compounds with z-score > 8 (Fig. 2e). […] We employed two cellular models of senescence: one of OIS and a second one of TIS. For the OIS case, we utilised IMR90 ER:RAS cells with 4-OHT at 100 nM. […] For the TIS model, we used A549 cells with etoposide at 100 μM. The exposure of the cells to etoposide lasted 48 h, after which period the cells were cultivated for a further three days with normal media.
IMR90 (CCL-186) human foetal lung fibroblasts and A549 (CCL-185) human lung adenocarcinoma cells were obtained from the American Type Culture Collection (ATCC, Manassas, VA). The cell lines were confirmed to be mycoplasma negative (Lonza MycoAlert, cat #LT07-118). IMR90 ER:RAS is a derivative of IMR90 cells expressing a switchable version of oncogenic H-Ras[84]. IMR90 ER:RAS and A549 cells were maintained in Dulbecco’s Modified Eagle Medium (DMEM, ThermoFisher) supplemented with foetal bovine serum (10%), L-glutamine (2 mM, ThermoFisher), and antibiotic-antimycotic solution (1%, ThermoFisher) and incubated under standard tissue culture conditions (37 °C and 5% CO2). For induction of the senescent phenotype, IMR90-ER:RAS cells were cultured in hydroxytamoxifen (4-OHT) (Sigma) added media at 100 nM final concentration. IMR90 were kept in culture for over 27 passages for replicative senescence. Cells were tested for mycoplasma on a regular basis.
Cells were seeded (50 μL per well) into 384-well plates (IMR90 ER:RAS cells in Nunc Optical Bottom Polybase Microplates [#142761, Thermo Scientific, Rochester, NY] and A549 cells in CELLSTAR Cell Culture Microplates [#781091, Greiner Bio-One, Kremsmünster, Austria]). Cells were incubated under standard tissue culture conditions for 24 h before the addition of compounds. Passage 14 IMR90 ER:RAS cells were seeded at 1300 cells per well in the control condition, and at 1600 cells per well in the senescent case. Passage 34 A549 cells were seeded at 7000 cells per well in the control condition, and at 10,000 cells per well in the senescent case.
Dose response plates were prepared with a DMSO control and a 10-point […] concentration range, and added to the compounds using a D300e digital dispenser (Tecan Trading AG, Switzerland) at a final concentration of between 10 μM and 10 nM. Every screened condition was carried out in triplicate. After 72 h of incubation with exposure to the compounds, cells were fixed by the addition of an equal volume of formaldehyde (8%, 50 μL; #BP531-500, Fisher Bioreagents, Fisher Scientific, Loughborough, Leicestershire) to the existing media, incubated at room temperature (30 min), and washed three times in phosphate-buffered saline (PBS). Cells were then permeabilised in Triton-X100 (0.1%, 50 μL) and incubated at room temperature (30 min) followed by three more washes with PBS.
Cells were stained with Hoechst 33342 for nuclei count (excitation/emission wavelength at 387/447 […], DAPI channel, original concentration at 10 mg/ml, final concentration at 2 μg/ml; H1399, Molecular Probes, Eugene, OR). The staining solution was prepared in bovine serum albumin solution (10%). The staining solution was added to each well (30 μL) and incubated in the dark at room temperature (30 min), followed by three washes with PBS and no final aspiration. Plates were foil sealed.

[1] abbreviates: IMR-90, 72 h, Senescent, log (dose) [M] -5, 72 h, mean n=3 (Fig 3C), read-out: Mean % Cell Survival.
Setting [2] is: IMR-90, 72 h, Senescent, log (dose) [M] -5.33, 72 h, mean n=3 (Fig 3C), read-out: Mean % Cell Survival.
Where [3] appears, read: IMR-90, 72 h, Senescent, log (dose) [M] -5.66, 72 h, mean n=3 (Fig 3C), read-out: Mean % Cell Survival.
The mark [4] stands for this setting: IMR-90, 72 h, Senescent, log (dose) [M] -6, 72 h, mean n=3 (Fig 3C), read-out: Mean % Cell Survival.
Where [5] appears, read: IMR-90, 72 h, Senescent, log (dose) [M] -6.33, 72 h, mean n=3 (Fig 3C), read-out: Mean % Cell Survival.
Setting [6] is: IMR-90, 72 h, Senescent, log (dose) [M] -6.66, 72 h, mean n=3 (Fig 3C), read-out: Mean % Cell Survival.
The mark [7] stands for this setting: IMR-90, 72 h, Senescent, log (dose) [M] -7, 72 h, mean n=3 (Fig 3C), read-out: Mean % Cell Survival.
Setting [8] is: IMR-90, 72 h, Senescent, log (dose) [M] -7.33, 72 h, mean n=3 (Fig 3C), read-out: Mean % Cell Survival.
Setting [9] is: IMR-90, 72 h, Senescent, log (dose) [M] -7.66, 72 h, mean n=3 (Fig 3C), read-out: Mean % Cell Survival.
The mark [10] stands for this setting: IMR-90, 72 h, Senescent, log (dose) [M] -8, 72 h, mean n=3 (Fig 3C), read-out: Mean % Cell Survival.

Where “and” joins values, the source holds several entries; their conditions need not be identical. Equal entries are not always repeated. Where two headings read alike, the source gives them in different places.

`Cc1c(NC(=O)OC[C@@H]2COCCN2)cn2ncnc(Nc3ccc4c(cnn4Cc4cccc(F)c4)c3)c12.Cl.Cl` [BMS 599626 2HCL, BMS 599626 dihydrochloride]: the “% Cell Survival” value was 148.305% and 168.559% and 104.914% (Senescent cells, log (dose) [M] -5, individual replicates, SUP FIG 4C); 96.2712% and 179.476% and 125.714% (Senescent cells, log (dose) [M] -5.33, individual replicates, SUP FIG 4C); 153.051% and 117.467% and 95.5429% (Senescent cells, log (dose) [M] -5.66, individual replicates, SUP FIG 4C); 117.797% and 133.042% and 86.6286% (Senescent cells, log (dose) [M] -6, individual replicates, SUP FIG 4C); 137.458% and 98.5444% and 96.6857% (Senescent cells, log (dose) [M] -6.33, individual replicates, SUP FIG 4C); 136.441% and 92.5764% and 82.2857% (Senescent cells, log (dose) [M] -6.66, individual replicates, SUP FIG 4C). Further, the “% Cell Survival” value is 136.102% and 95.3421% and 94.0571% (Senescent cells, log (dose) [M] -7, individual replicates, SUP FIG 4C); 122.034% and 101.601% and 79.4286% (Senescent cells, log (dose) [M] -7.33, individual replicates, SUP FIG 4C); 139.831% and 102.475% and 90.8571% (Senescent cells, log (dose) [M] -7.66, individual replicates, SUP FIG 4C); 151.017% and 98.69% and 92.6857% (Senescent cells, log (dose) [M] -8, individual replicates, SUP FIG 4C); 90.7857% (Senescent, log (dose) [M] -5); 83.9286% (Senescent, log (dose) [M] -5.33). Also, the “% Cell Survival” value is, setting by setting: (Senescent, log (dose) [M] -5.66) 68.2857%; (Senescent, log (dose) [M] -6) 92.9286%; (Senescent, log (dose) [M] -6.33) 86.7857%; (Senescent, log (dose) [M] -6.66) 103.929%; (Senescent, log (dose) [M] -7) 113.571%; (Senescent, log (dose) [M] -7.33) 119.214%. For the same compound, the “% Cell Survival” value is, setting by setting: (Senescent, log (dose) [M] -7.66) 109.286%; (Senescent, log (dose) [M] -8) 117.714%. In addition, the “Mean % Cell Survival” value reads like this: (Senescent, log (dose) [M] -5, 72 h, mean n=3 (Fig 3C)) 140.593%; (Senescent, log (dose) [M] -5.33, 72 h, mean n=3 (Fig 3C)) 133.82%; (Senescent, log (dose) [M] -5.66, 72 h, mean n=3 (Fig 3C)) 122.02%; (Senescent, log (dose) [M] -6, 72 h, mean n=3 (Fig 3C)) 112.489%; (Senescent, log (dose) [M] -6.33, 72 h, mean n=3 (Fig 3C)) 110.896%; (Senescent, log (dose) [M] -6.66, 72 h, mean n=3 (Fig 3C)) 103.768%. For the same compound, the “Mean % Cell Survival” value is listed as 108.5% (Senescent, log (dose) [M] -7, 72 h, mean n=3 (Fig 3C)); 101.021% (Senescent, log (dose) [M] -7.33, 72 h, mean n=3 (Fig 3C)); 111.054% (Senescent, log (dose) [M] -7.66, 72 h, mean n=3 (Fig 3C)); 114.131% (Senescent, log (dose) [M] -8, 72 h, mean n=3 (Fig 3C)).

Take `Cc1c(-c2c(F)cc(C(N)=O)c3[nH]c4c(c23)CC[C@H](C(C)(C)O)C4)cccc1-n1c(=O)c2cccc(F)c2n(C)c1=O` [BMS 986142]: the viability at 10 µM under setting [1] was 97.6%. The viability at 4.677 µM is 143% under setting [2] and 133% (IMR-90, Senescent cells, log (dose) [M] -5.33, individual replicates, SUP FIG 4C, read-out: % Cell Survival). Further, the viability at 2.188 µM under setting [3] was determined as 96.7%. Also, the viability at 1 µM under setting [4] is 102%. Also, the viability at 0.4677 µM is, setting by setting: under setting [5], 101%; (IMR-90, Senescent cells, log (dose) [M] -6.33, individual replicates, SUP FIG 4C, read-out: % Cell Survival) 103%. Besides, the viability at 0.2188 µM reads like this: under setting [6], 100%; (IMR-90, Senescent cells, log (dose) [M] -6.66, individual replicates, SUP FIG 4C, read-out: % Cell Survival) 105%. Also, the viability at 0.1 µM reads like this: under setting [7], 98.6%; (IMR-90, Senescent cells, log (dose) [M] -7, individual replicates, SUP FIG 4C, read-out: % Cell Survival) 91.6%. Besides, the viability at 0.04677 µM under setting [8] came out at 109%. For the same compound, the viability at 0.02188 µM by setting is: under setting [9], 95.3%; (IMR-90, Senescent cells, log (dose) [M] -7.66, individual replicates, SUP FIG 4C, read-out: % Cell Survival) 94.3%. Moreover, the viability at 0.01 µM amounted to 97.5% under setting [10]; 90.3% (IMR-90, Senescent cells, log (dose) [M] -8, individual replicates, SUP FIG 4C, read-out: % Cell Survival); 111% (IMR-90, Senescent, log (dose) [M] -8, read-out: % Cell Survival).

For the compound `O=c1oc2c(O)c(O)cc3c(=O)oc4c(O)c(O)cc1c4c23` [Ellagic acid, ellagic acid], the viability at 10 µM under setting [1] is 109%. Moreover, the viability at 4.677 µM under setting [2] came out at 104%. The viability at 2.188 µM worked out at 113% under setting [3] and 108% (IMR-90, Senescent cells, log (dose) [M] -5.66, individual replicates, SUP FIG 4C, read-out: % Cell Survival). For the same compound, the viability at 1 µM by setting is: under setting [4], 110%; (IMR-90, Senescent cells, log (dose) [M] -6, individual replicates, SUP FIG 4C, read-out: % Cell Survival) 117%. Besides, under setting [5], the viability at 0.4677 µM was determined as 123%. For the same compound, the viability at 0.2188 µM under setting [6] is 122%. Moreover, the viability at 0.1 µM under setting [7] was 117%. For the same compound, under setting [8], the viability at 0.04677 µM is 122%. Moreover, under setting [9], the viability at 0.02188 µM is 114%. Moreover, the viability at 0.01 µM under setting [10] came out at 113%.
